From the supplement of paper PMC12463676, “Small-molecule dissolution of stress granules by redox modulation benefits ALS models” (Nature Chemical Biology, 2025)

Tests used:
lipoamide = compound: NC(=O)CCCCC1CCSS1 [lipoamide]; assay: thermal stability z-score vs DMSO; higher = more thermally stabilized by treatment; conditions: HeLa, lipoamide concentration 100 µM
Experimental: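 Cellular thermal proteome profiling in HeLa cells. Cells were treated with 100 µM lipoamide for 1 h, with or without 1 mM arsenate for a further 1 h, then heated to ten temperatures (37-66.3 °C), and soluble protein was quantified by TMT mass spectrometry relative to 0.1% DMSO controls. The thermal stability score (sum of log2 fold changes minus the abundance score) was transformed to a z-score; mean of n = 3 experiments.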

potassium arsenate = compound: O=[As]([O-])(O)O.[K+] [potassium arsenate]; assay: as above; conditions: HeLa; arsenate concentration 1 mM
Experimental: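 Cellular thermal proteome profiling in HeLa cells treated with 1 mM arsenate for 1 h (DMSO pretreatment), heated to ten temperatures (37-66.3 °C). Soluble protein was quantified by TMT mass spectrometry relative to DMSO controls; the thermal stability score was transformed to a z-score; mean of n = 3 experiments.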

[1] = arsenate co-treatment: 1 mM arsenate 1 h
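Also: each temperature applied for 3 min, abundance score taken as mean log2 fold change at the two lowest temperatures, z-score obtained by mean subtraction and division by SD.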

Sequence of UniProt Q5TGY1 (Q5TGY1 whole entry): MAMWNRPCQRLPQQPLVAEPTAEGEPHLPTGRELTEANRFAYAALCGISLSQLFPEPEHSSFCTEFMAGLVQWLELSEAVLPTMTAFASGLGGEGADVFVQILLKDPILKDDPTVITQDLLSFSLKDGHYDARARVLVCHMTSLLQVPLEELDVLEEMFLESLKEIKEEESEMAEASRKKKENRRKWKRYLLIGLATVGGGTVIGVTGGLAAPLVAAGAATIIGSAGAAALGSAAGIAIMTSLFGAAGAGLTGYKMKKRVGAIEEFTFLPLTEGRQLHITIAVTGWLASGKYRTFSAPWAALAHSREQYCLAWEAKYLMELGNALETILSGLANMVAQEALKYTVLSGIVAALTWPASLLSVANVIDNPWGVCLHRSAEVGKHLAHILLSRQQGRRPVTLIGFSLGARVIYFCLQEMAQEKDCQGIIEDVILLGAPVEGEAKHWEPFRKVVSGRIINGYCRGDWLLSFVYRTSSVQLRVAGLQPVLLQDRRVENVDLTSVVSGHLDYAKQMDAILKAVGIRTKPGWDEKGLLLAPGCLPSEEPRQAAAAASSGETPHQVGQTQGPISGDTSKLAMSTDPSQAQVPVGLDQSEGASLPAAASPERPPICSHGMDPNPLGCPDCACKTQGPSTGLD
Sequence of UniProt Q96HV5 (Q96HV5 whole entry): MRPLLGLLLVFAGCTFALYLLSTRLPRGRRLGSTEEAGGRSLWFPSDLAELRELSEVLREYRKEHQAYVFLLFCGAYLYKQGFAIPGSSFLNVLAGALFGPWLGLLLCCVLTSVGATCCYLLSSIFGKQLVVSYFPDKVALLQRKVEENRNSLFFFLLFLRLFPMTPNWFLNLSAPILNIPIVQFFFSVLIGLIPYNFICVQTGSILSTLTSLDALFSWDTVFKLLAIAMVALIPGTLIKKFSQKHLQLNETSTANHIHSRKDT
Sequence of UniProt Q9BXS4 (Q9BXS4 whole entry): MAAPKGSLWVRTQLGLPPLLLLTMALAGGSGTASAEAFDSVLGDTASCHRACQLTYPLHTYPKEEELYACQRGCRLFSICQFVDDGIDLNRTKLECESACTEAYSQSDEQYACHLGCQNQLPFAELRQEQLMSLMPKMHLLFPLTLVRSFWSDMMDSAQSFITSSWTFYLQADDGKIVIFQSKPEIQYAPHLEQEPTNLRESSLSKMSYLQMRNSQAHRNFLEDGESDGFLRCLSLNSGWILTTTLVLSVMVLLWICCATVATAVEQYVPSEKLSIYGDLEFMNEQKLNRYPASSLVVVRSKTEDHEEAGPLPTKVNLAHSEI
Sequence of UniProt Q9Y3Q3 (Q9Y3Q3 whole entry): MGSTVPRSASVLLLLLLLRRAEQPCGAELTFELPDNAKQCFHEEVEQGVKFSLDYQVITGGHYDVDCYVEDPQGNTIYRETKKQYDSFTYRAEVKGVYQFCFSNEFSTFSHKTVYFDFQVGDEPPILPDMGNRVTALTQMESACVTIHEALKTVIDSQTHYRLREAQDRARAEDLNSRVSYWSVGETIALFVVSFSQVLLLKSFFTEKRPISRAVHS
Sequence of UniProt Q04726 (Q04726 whole entry): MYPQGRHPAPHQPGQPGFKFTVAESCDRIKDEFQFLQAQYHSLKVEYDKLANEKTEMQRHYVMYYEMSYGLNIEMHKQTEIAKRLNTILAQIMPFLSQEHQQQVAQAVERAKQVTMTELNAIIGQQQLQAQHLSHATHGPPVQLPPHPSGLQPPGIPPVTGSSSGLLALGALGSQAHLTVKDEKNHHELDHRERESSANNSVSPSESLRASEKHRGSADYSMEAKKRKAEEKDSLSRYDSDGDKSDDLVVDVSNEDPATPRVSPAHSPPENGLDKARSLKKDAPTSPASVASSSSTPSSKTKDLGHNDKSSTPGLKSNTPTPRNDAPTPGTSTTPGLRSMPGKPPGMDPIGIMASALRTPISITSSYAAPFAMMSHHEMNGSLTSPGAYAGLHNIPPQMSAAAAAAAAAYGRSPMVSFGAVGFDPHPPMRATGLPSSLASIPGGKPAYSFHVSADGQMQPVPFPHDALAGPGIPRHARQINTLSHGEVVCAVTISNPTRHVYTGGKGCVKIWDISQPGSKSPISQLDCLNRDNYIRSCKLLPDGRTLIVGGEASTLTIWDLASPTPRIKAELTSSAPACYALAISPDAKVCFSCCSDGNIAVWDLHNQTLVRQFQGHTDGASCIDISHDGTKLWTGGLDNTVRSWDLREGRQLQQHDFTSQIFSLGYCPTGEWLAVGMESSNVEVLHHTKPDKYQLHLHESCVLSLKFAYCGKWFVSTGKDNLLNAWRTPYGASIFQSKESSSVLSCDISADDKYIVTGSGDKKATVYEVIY
Sequence of UniProt P17152 (P17152 whole entry): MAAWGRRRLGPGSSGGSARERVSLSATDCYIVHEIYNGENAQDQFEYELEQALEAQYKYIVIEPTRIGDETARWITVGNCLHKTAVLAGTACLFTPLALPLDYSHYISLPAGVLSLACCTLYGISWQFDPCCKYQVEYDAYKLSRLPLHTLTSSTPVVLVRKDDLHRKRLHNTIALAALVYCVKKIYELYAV
Sequence of UniProt Q99805 (Q99805 whole entry): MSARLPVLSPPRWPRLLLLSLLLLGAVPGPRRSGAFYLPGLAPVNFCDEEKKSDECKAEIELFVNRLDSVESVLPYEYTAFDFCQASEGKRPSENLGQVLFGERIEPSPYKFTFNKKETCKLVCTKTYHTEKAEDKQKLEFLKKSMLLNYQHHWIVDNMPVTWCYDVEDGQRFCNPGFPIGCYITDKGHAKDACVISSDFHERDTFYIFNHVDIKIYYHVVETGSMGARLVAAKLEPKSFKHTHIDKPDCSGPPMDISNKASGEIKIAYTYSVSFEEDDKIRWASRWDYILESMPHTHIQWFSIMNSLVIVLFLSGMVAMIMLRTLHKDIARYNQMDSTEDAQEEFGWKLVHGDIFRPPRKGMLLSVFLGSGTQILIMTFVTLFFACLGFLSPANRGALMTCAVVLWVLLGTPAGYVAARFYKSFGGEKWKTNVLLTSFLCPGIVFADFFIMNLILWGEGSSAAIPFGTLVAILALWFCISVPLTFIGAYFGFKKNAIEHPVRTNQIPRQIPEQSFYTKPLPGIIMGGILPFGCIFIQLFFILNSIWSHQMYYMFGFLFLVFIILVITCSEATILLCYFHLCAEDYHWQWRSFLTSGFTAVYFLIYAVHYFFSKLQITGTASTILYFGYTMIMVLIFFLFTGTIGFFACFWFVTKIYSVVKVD
Sequence of UniProt Q12893 (Q12893 whole entry): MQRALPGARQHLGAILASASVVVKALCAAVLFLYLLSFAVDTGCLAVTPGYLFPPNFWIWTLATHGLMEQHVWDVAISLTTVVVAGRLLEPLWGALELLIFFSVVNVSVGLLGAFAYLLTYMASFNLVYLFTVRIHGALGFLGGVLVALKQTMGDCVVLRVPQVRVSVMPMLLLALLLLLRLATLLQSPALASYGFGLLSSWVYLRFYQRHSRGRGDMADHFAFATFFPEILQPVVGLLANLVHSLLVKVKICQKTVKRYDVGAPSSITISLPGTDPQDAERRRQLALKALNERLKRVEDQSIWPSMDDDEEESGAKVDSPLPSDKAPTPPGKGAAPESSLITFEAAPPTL
Sequence of UniProt Q7Z7H5 (Q7Z7H5 whole entry): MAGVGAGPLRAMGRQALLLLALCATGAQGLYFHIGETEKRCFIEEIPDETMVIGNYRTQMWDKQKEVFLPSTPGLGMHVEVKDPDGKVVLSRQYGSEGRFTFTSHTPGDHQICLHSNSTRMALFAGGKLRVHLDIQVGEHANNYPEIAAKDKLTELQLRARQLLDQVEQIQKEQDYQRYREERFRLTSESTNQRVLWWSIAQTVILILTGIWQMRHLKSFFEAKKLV
Sequence of UniProt Q86UE8 (Q86UE8 whole entry, looked up): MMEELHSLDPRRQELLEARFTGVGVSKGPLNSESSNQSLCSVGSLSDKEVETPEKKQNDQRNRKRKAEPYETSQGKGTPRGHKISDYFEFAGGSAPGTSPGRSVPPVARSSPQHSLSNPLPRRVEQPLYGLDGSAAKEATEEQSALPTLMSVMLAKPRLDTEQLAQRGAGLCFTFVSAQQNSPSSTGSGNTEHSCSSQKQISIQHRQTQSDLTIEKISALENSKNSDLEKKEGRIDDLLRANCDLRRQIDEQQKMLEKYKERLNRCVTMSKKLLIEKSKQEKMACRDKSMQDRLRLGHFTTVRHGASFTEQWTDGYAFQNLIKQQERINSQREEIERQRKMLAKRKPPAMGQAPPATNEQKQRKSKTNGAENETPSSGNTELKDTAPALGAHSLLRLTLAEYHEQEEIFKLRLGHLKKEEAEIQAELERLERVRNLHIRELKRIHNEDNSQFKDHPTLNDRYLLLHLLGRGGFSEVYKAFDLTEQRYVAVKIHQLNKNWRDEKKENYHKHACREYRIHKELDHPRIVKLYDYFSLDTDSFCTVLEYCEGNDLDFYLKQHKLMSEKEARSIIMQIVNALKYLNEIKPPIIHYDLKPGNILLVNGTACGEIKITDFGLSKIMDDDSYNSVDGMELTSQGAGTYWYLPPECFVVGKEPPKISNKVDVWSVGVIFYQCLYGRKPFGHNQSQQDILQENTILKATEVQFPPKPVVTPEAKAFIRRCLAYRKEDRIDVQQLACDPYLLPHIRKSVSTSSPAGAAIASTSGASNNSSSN
Sequence of UniProt Q9NUM4 (Q9NUM4 whole entry): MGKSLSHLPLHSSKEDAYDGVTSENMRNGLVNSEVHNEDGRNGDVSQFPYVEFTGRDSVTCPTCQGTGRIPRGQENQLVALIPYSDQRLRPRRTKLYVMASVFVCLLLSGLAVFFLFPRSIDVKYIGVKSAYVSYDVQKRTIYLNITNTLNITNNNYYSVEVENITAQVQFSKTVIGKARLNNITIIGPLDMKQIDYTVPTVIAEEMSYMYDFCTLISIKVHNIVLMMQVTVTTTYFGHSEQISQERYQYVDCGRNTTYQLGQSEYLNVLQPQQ
Sequence of UniProt Q9Y3B3 (Q9Y3B3 whole entry): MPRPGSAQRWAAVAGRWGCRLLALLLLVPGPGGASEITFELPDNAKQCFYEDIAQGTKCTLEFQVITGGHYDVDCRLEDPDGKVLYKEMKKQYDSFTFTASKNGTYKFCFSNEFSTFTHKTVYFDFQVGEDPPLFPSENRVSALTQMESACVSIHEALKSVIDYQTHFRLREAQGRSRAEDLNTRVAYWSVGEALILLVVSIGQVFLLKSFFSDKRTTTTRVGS

Target	thermal stability z-score (lipoamide; [1])	thermal stability z-score (lipoamide; arsenate co-treatment: none)	thermal stability z-score (potassium arsenate)
TLDC1 (UniProt Q6P9B6)	-0.455	-0.204	-0.238
TLE2 (UniProt Q04725)	-0.165	0.842	0.141
TLE3 (UniProt Q04726)	0.171	0.329	-0.674
TLE4 (UniProt Q04727)	-0.201	0.36	0.289
TLK1 (UniProt Q9UKI8)	0.193	-0.983	0.956
TLK2 (UniProt Q86UE8)	-0.838	0.0336	0.502
TLN1 (UniProt Q9Y490)	0.266	0.266	-0.682
TLN2 (UniProt Q9Y4G6)	-1.57	-0.868	-0.69
TM7SF3 (UniProt Q9NS93)	-0.0176	-0.523	0.533
TM9SF2 (UniProt Q99805)	-0.509	-0.486	1.03
TM9SF3 (UniProt Q9HD45)	-0.451	-0.0174	0.511
TM9SF4 (UniProt Q92544)	-0.593	-0.263	0.734
TMA7 (UniProt Q9Y2S6)	0.356	0.314	0.111
TMA16 (UniProt Q96EY4)	-0.345	-0.0887	-0.0752
TMCO1 (UniProt Q9UM00)	0.0581	0.305	-0.687
TMCO3 (UniProt Q6UWJ1)	-0.807	-1.31	0.2
TMCO4 (UniProt Q5TGY1)	-0.342	-0.363	-0.0739
TMED1 (UniProt Q13445)	0.206	0.729	0.967
TMED2 (UniProt Q15363)	-0.867	-1.06	0.624
TMED3 (UniProt Q9Y3Q3)	-0.694	-0.398	0.316
TMED4 (UniProt Q7Z7H5)	-0.192	-0.249	0.0343
TMED5 (UniProt Q9Y3A6)	-1.78	-1.51	0.321
TMED7 (UniProt Q9Y3B3)	-0.983	-0.909	0.0944
TMED9 (UniProt Q9BVK6)	-1.24	-1.5	0.151
TMED10 (UniProt P49755)	-1.53	-1.03	0.275
TMEM2 (UniProt Q9UHN6)	-0.117	-0.196	0.466
TMEM9 (UniProt Q9P0T7)	-2.36	-2	-0.267
TMEM9B (UniProt Q9NQ34)	0.157	0.52	0.838

Target	thermal stability z-score (lipoamide; [1])	thermal stability z-score (lipoamide; arsenate co-treatment: none)	thermal stability z-score (potassium arsenate)
TMEM11 (UniProt P17152)	-0.251	-0.145	-1.1
TMEM23|SGMS1	0.177	-0.142	-0.151
TMEM30A (UniProt Q9NV96)	-0.45	-0.161	-0.845
TMEM33 (UniProt P57088)	-0.0206	-1.12	0.972
TMEM38B (UniProt Q9NVV0)	0.603	-0.085	0.654
TMEM41A (UniProt Q96HV5)	0.652	0.936	0.885
TMEM41B (UniProt Q5BJD5)	0.259	0.188	-0.153
TMEM43 (UniProt Q9BTV4)	-3.42	-3.08	0.701
TMEM55B (UniProt Q86T03)	0.572	0.963	0.592
TMEM56 (UniProt Q96MV1)	0.138	1.15	0.953
TMEM57 (UniProt Q8N5G2)	0.13	-0.0957	-0.249
TMEM59 (UniProt Q9BXS4)	-1.01	-0.383	-0.0618
TMEM63A (UniProt O94886)	-0.739	-0.0217	-0.159
TMEM63B (UniProt Q5T3F8)	-0.865	-0.374	-0.606
TMEM65 (UniProt Q6PI78)	-0.379	-0.204	0.128
TMEM68 (UniProt Q96MH6)	0.361	-0.287	-0.552
TMEM70 (UniProt Q9BUB7)	0.461	-0.347	0.259
TMEM87A (UniProt Q8NBN3)	0.451	0.36	0.645
TMEM87B (UniProt Q96K49)	-0.402	0.56	-0.0195
TMEM97 (UniProt Q5BJF2)	0.385	0.189	0.108
TMEM106B (UniProt Q9NUM4)	-0.167	0.154	0.192
TMEM109 (UniProt Q9BVC6)	0.0915	0.27	0.115
TMEM115 (UniProt Q12893)	0.0848	0.637	-0.307
TMEM126A (UniProt Q9H061)	0.676	0.815	0.231
TMEM126B (UniProt Q8IUX1)	1.31	1.36	1.18
TMEM131 (UniProt Q92545)	-1.03	0.061	0.83
TMEM160 (UniProt Q9NX00)	-0.0998	0.628	0.0213
